According to ChEMBL document CHEMBL2203240, “Synthesis of propiophenone derivatives as new class of antidiabetic agents reducing body weight in db/db mice” (Bioorg Med Chem, 2012):
Active and inactive are the calls of the source. The calls are words filed in the database; no cut-off is given here.

How the values were obtained:
[1] = target: Dipeptidyl peptidase 4 (Homo sapiens) (UniProt P27487); assay: Inhibition of DPP4 at 100 uM
Rattus norvegicus [2] = assay: Antihyperglycemic activity against sucrose loaded Charles Foster/Wistar albino rat assessed as reduction in blood glucose level at 100 mg/kg, po administered 30 mins before sucrose challenge by glucometer; type: functional; set-up: scale not given: the % may be the effect or the level left
[3] = target: T1, Glucose-6-phosphatase catalytic subunit 1 (Homo sapiens) (UniProt P35575); assay: Inhibition of glucose-6-phosphatase at 100 uM
T1 sequence (whole entry): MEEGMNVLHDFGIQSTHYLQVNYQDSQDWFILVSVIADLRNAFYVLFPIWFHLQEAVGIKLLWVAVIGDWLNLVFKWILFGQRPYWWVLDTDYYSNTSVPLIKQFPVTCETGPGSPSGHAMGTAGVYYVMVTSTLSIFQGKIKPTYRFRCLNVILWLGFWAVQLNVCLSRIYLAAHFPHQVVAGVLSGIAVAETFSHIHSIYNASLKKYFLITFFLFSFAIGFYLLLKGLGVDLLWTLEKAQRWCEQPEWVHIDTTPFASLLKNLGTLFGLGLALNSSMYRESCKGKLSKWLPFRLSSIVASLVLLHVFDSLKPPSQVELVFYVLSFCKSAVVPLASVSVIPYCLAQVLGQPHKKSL

[4] = target: T2, Tyrosine-protein phosphatase non-receptor type 1 (Homo sapiens) (UniProt P18031); assay: Inhibition of PTP1B at 100 uM
T2 sequence (whole entry): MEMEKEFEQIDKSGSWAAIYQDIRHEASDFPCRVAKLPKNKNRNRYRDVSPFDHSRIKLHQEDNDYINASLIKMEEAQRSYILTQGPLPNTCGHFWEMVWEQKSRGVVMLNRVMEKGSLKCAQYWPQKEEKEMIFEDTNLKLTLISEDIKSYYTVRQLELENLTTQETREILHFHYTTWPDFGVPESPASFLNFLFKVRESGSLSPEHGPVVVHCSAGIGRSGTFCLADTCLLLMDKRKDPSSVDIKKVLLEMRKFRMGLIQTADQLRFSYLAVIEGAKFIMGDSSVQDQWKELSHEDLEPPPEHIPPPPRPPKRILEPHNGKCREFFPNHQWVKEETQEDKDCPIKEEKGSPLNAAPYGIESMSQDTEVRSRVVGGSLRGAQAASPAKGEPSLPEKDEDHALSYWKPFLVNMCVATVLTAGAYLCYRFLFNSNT

[5] = Inhibition of alpha-glucosidase at 100 uM
[6] = Inhibition of glycogen phosphorylase at 100 uM
Rattus norvegicus [7] = assay: Antihyperglycemic activity against sucrose challenged streptozotocin-induced diabetic Sprague-Dawley albino rat assessed as reduction of AUC of plasma glucose level at 100 mg/kg, po after 1 to 5 hrs administered 30 mins before sucrose challenge by glucometer; type: functional; set-up: scale not given: the % may be the effect or the level left
Rattus norvegicus [8] = assay: Antihyperglycemic activity against sucrose challenged streptozotocin-induced diabetic Sprague-Dawley albino rat assessed as reduction of AUC of plasma glucose level at 100 mg/kg, po after 1 to 24 hrs administered 30 mins before sucrose challenge by glucometer; type: functional; set-up: scale not given: the % may be the effect or the level left
[9] = target: T3, Tyrosine-protein phosphatase non-receptor type 1 (Homo sapiens, UniProt P18031); assay: Inhibition of PTP1B
T3 sequence (P18031 whole entry): T2 sequence (whole entry)

Mus musculus [10] = assay: Antihyperglycemic activity in C57BL/Ks db/db mouse assessed as reduction in blood glucose level at 30 mg/kg/day, po measured on day 6 post dose by postprandial oral glucose tolerance test relative to control; type: functional; set-up: scale not given: the % may be the effect or the level left
Mus musculus [11] = assay: Antiobesity activity in C57BL/Ks db/db mouse assessed as reduction in body weight change at 30 mg/kg/day, po measured for 10 days relative to control; type: functional, organism-based
Mus musculus [12] = assay: Reduction in food intake in C57BL/Ks db/db mouse at 30 mg/kg/day, po measured from day 3 to day 10; type: functional, organism-based
Mus musculus [13] = assay: Antihyperglycemic activity in C57BL/Ks db/db mouse assessed as reduction in insulin level at 30 mg/kg/day, po relative to control; type: functional; set-up: scale not given: the % may be the effect or the level left
Mus musculus [14] = assay: Antidyslipidemic activity in C57BL/Ks db/db mouse assessed as reduction in plasma total cholesterol at 30 mg/kg/day, po relative to control; type: functional; set-up: scale not given: the % may be the effect or the level left
Mus musculus [15] = assay: Antidyslipidemic activity in C57BL/Ks db/db mouse assessed as increase in HDL-cholesterol at 30 mg/kg/day, po relative to control; type: functional
Mus musculus [16] = assay: Antihyperglycemic activity in C57BL/Ks db/db mouse assessed as reduction in postprandial hyperglycemia at 30 mg/kg, po measured for 10 days post dose relative to control; type: functional; set-up: scale not given: the % may be the effect or the level left
Mus musculus [17] = assay: Antidyslipidemic activity in C57BL/Ks db/db mouse assessed as reduction in plasma triglyceride level at 30 mg/kg/day, po relative to control; type: functional; set-up: scale not given: the % may be the effect or the level left
Mus musculus [18] = assay: Antihyperglycemic activity in C57BL/Ks db/db mouse assessed as reduction in blood glucose level at 30 mg/kg/day, po measured day 10 post dose by postprandial oral glucose tolerance test relative to control; type: functional; set-up: scale not given: the % may be the effect or the level left

Chain of Dipeptidyl peptidase 4 (Homo sapiens) (P27487 whole entry, looked up): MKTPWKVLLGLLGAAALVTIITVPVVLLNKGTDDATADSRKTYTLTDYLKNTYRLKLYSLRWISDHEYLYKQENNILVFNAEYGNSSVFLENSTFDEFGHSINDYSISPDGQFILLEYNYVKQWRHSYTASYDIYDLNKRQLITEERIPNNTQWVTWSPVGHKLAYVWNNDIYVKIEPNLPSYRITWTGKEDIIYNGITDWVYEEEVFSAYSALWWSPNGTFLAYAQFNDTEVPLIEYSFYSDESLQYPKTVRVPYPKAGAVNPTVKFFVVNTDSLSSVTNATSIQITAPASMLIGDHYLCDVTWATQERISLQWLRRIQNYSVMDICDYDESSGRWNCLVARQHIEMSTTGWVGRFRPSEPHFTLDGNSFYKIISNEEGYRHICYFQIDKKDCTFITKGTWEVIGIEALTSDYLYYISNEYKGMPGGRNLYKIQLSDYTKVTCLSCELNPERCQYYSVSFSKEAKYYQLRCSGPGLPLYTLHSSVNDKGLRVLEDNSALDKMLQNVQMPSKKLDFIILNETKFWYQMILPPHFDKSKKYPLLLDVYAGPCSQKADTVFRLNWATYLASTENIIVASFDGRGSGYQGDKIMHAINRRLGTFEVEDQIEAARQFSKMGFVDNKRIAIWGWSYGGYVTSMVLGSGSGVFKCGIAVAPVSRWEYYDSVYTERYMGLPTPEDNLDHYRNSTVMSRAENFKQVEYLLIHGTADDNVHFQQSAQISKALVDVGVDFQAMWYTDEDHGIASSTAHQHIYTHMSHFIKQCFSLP

| inhibition [1] | inhibition [3] | inhibition [4] | inhibition [5] | inhibition [6] | IC50 [9] | Structure (SMILES) | Activity (Rattus norvegicus [2]) | Activity (Rattus norvegicus [7]) | Activity (Rattus norvegicus [8]) | Activity (Mus musculus [10]) | Activity (Mus musculus [11]) | Activity (Mus musculus [12]) | Activity (Mus musculus [13]) | Activity (Mus musculus [14]) | Activity (Mus musculus [15]) | Activity (Mus musculus [16]) | Activity (Mus musculus [17]) | Activity (Mus musculus [18]) |
| --- | --- | --- | --- | --- | --- | --- | --- | --- | --- | --- | --- | --- | --- | --- | --- | --- | --- | --- |
| < 5% | < 5% | 19.6% | < 5% | < 5% |  | CCOC(=O)C(CCCOc1cccc(OCCN2CCCCC2)c1C(=O)CC)C(=O)OCC | 16.4% |  |  |  |  |  |  |  |  |  |  |  |
| < 5% | 17.3% | 31.9% | < 5% | < 5% |  | CCCCN(C)CCCOc1cccc(O)c1C(=O)CC | 23.8% | 27.5% | 21.5% | 26.7% | Active | Active | 27.7% | 20.4% | 4.03% | 39.6% | 23.8% | 33.6% |
| < 5% | 21.3% | 27.5% | < 5% | < 5% |  | CCC(=O)c1c(O)cccc1OCCN1CCCCC1 | 40.4% | 29.2% | 19.7% |  |  |  |  |  |  |  |  |  |
| 17.4% | 18.3% | 52.1% | < 5% | 24.8% | 19.2 µM | CCCCNCCCOc1cccc(O)c1C(=O)CC | 11% |  |  |  |  |  |  |  |  |  |  |  |
| 25.6% | 13.6% | 42.1% | < 5% | 19.5% |  | CCC(=O)c1c(O)cccc1OCCCN1CCCC1 | 26.8% | 16.9% | 14.8% |  |  |  |  |  |  |  |  |  |
| < 5% | < 5% | 36.4% | 28.9% | 13.7% |  | CCC(=O)c1c(O)cccc1OCCN1CCCC1 | 21.08% |  |  |  |  |  |  |  |  |  |  |  |
| 24.2% | 11.3% | 19.3% | 18.4% | < 5% |  | CCC(=O)c1c(O)cccc1OCCN(C)C | 19.45% | 12.1% | 7.4% |  |  |  |  |  |  |  |  |  |
| < 5% | < 5% | 31.8% | < 5% | < 5% |  | CCC(=O)c1c(O)cccc1OCCCN1CCCCC1 | 33.2% | 10.2% | 8.6% |  |  |  |  |  |  |  |  |  |
| 18.3% | 13.9% | 58.6% | < 5% | < 5% | 18.6 µM | CCOC(=O)C(CCCOc1cccc(OCCN2CCCC2)c1C(=O)CC)C(=O)OCC | 22.9% |  |  |  |  |  |  |  |  |  |  |  |
| < 5% | 11.6% | 28.8% | 19.3% | < 5% |  | CCC(=O)c1c(O)cccc1OCCN(CC)CC | 38.4% | 23% | 20.4% |  |  |  |  |  |  |  |  |  |

More lines, now with the values behind:

| Structure (SMILES) | inhibition [1] | inhibition [3] | inhibition [4] | inhibition [5] | inhibition [6] | IC50 [9] | Activity (Rattus norvegicus [2]) | Activity (Rattus norvegicus [7]) | Activity (Rattus norvegicus [8]) | Activity (Mus musculus [10]) | Activity (Mus musculus [11]) | Activity (Mus musculus [12]) | Activity (Mus musculus [13]) | Activity (Mus musculus [14]) | Activity (Mus musculus [15]) | Activity (Mus musculus [16]) | Activity (Mus musculus [17]) | Activity (Mus musculus [18]) |
| --- | --- | --- | --- | --- | --- | --- | --- | --- | --- | --- | --- | --- | --- | --- | --- | --- | --- | --- |
| CCC(=O)c1c(O)cccc1OCCCNc1ccc(C)cc1 | < 5% | 18.9% | 79.8% | 18.9% | < 5% | 12.5 µM | 28.7% | 3.02% | 2.02% |  |  |  |  |  |  |  |  |  |
| CCC(=O)c1c(O)cccc1OCCCNc1ccc(OC)cc1 | 13.7% | < 5% | 83.6% | 19.3% | 23% | 8.3 µM | 54.6% | 22.1% | 22.8% | 28.4% | Active | Active | 23.6% | 14.8% | 7.2% | 23.9% | 22% | 29.9% |
| CCOC(=O)C(CCCOc1cccc(OCCCNc2ccc(C)cc2)c1C(=O)CC)C(=O)OCC | < 5% | < 5% | 42.6% | 11.8% | < 5% |  | 8.49% |  |  |  |  |  |  |  |  |  |  |  |
| CCOC(=O)C(CCCOc1cccc(OCCN(CC)CC)c1C(=O)CC)C(=O)OCC | < 5% | < 5% | 40.4% | < 5% | 22.9% |  | 17% |  |  |  |  |  |  |  |  |  |  |  |
| CN(C)C(=N)NC(=N)N [METFORMIN] |  |  |  |  |  |  | 18.9% |  |  |  |  |  |  |  |  |  |  |  |
| COc1ccc(Cl)cc1C(=O)NCCc1ccc(S(=O)(=O)NC(=O)NC2CCCCC2)cc1 [GLYBURIDE] |  |  |  |  |  |  | 32.3% |  |  |  |  |  |  |  |  |  |  |  |
| CCOC(=O)C(CCCOc1cccc(OCCN(C)C)c1C(=O)CC)C(=O)OCC | < 5% | < 5% | 51.1% | < 5% | < 5% | 20.4 µM | 11.5% |  |  |  |  |  |  |  |  |  |  |  |
| CN(CCOc1ccc(CC2SC(=O)NC2=O)cc1)c1ccccn1 (centres undefined) [ROSIGLITAZONE] |  |  |  |  |  |  |  |  |  | 33.9% |  |  |  |  |  | 51.3% |  | 46.5% |
